From ChEMBL document CHEMBL1201862, “PubChem BioAssay data set” (2004)
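Where inhibition never reached the appropriate level, the endpoint shown equals the highest concentration tested. Otherwise, values were interpolated linearly from a five-concentration, 48-hour dose response in 96-well plates. GI50 is the concentration that inhibits growth by half.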 Calls of active or inactive are those of the source. No stated cut-off is given here; in the data, active = GI50 up to about 1.1 µM and inactive = higher.

How the values were obtained:
Assay in all cases: NCI anticancer screen, dose series, 48 h
MDA-N = tested on: MDA-N
M14 = tested on: M14
786-0 = tested on: 786-0
NCI-H522 = tested on: NCI-H522
SW-620 = tested on: SW-620
SNB-19 = tested on: SNB-19
EKVX = tested on: EKVX
MCF7 = tested on: MCF7
OVCAR-5 = tested on: OVCAR-5
SNB-75 = tested on: SNB-75
UACC-257 = tested on: UACC-257
SK-MEL-5 = tested on: SK-MEL-5
TK-10 = tested on: TK-10
UACC-62 = tested on: UACC-62
HCC 2998 = tested on: HCC 2998
OVCAR-3 = tested on: OVCAR-3
U-251 = tested on: U-251
RXF 393 = tested on: RXF 393
KM12 = tested on: KM12
IGROV-1 = tested on: IGROV-1

Measured: GI50

COc1ccc(OC)c2c(=S)c3ccccc3[nH]c12
inactive: MDA-N > 100 µM | M14 > 100 µM | 786-0 > 91.8 µM | NCI-H522 49.1 µM | SW-620 > 75.3 µM | SNB-19 > 100 µM | EKVX > 90.2 µM | MCF7 36.7 µM | OVCAR-5 > 94.8 µM | SNB-75 > 79.6 µM | UACC-257 > 73.8 µM | SK-MEL-5 22.2 µM | TK-10 > 67.8 µM | UACC-62 60.1 µM | HCC 2998 > 100 µM | OVCAR-3 > 100 µM | U-251 > 87.3 µM | RXF 393 54.6 µM | KM12 > 100 µM | IGROV-1 > 96.6 µM

O=C(O)Cc1nc[nH]c1C(=O)O
inactive: MDA-N > 100 µM | M14 > 100 µM | 786-0 > 100 µM | NCI-H522 > 100 µM | SW-620 > 100 µM | SNB-19 > 100 µM | EKVX > 100 µM | MCF7 > 100 µM | OVCAR-5 > 100 µM | SNB-75 > 100 µM | UACC-257 > 100 µM | SK-MEL-5 > 100 µM | TK-10 > 100 µM | UACC-62 > 100 µM | HCC 2998 > 100 µM | OVCAR-3 > 100 µM | U-251 > 100 µM | RXF 393 > 100 µM | KM12 > 100 µM | IGROV-1 > 100 µM

C=C1CC/C=C(\C)CCC[C@H](C)[C@@H](O)[C@@H]2OC(=O)C(=C)[C@@H]2C[C@H]1O
inactive: MDA-N 8.47 µM | M14 4.75 µM | 786-0 3.8 µM | NCI-H522 1.84 µM | SW-620 2.22 µM | SNB-19 14.8 µM | EKVX 5.73 µM | MCF7 4 µM | OVCAR-5 17.3 µM | SNB-75 12 µM | UACC-257 9.77 µM | SK-MEL-5 5.05 µM | TK-10 1.49 µM | UACC-62 8.91 µM | HCC 2998 18.4 µM | OVCAR-3 9.12 µM | U-251 18.1 µM | RXF 393 4.25 µM | KM12 15 µM | IGROV-1 3.88 µM

O=C(CCc1cc(O)cc(O)c1)NCCc1cc(OCc2ccccc2)cc(OCc2ccccc2)c1
inactive: MDA-N 13.7 µM | M14 13.2 µM | 786-0 18.7 µM | NCI-H522 11.9 µM | SW-620 15.8 µM | SNB-19 2.41 µM | EKVX 7.24 µM | MCF7 4.92 µM | OVCAR-5 20.2 µM | SNB-75 11 µM | UACC-257 23.6 µM | SK-MEL-5 10.6 µM | TK-10 21.4 µM | UACC-62 16.9 µM | HCC 2998 19.6 µM | OVCAR-3 14.7 µM | U-251 13 µM | RXF 393 8.55 µM | KM12 12.6 µM | IGROV-1 15.5 µM

O=C(/C=C/c1ccc([N+](=O)[O-])cc1)N1CCN(CCOC(c2ccc(F)cc2)c2ccc(F)cc2)CC1
inactive: MDA-N 27.1 µM | M14 6.35 µM | 786-0 67.6 µM | NCI-H522 63.5 µM | SW-620 > 100 µM | SNB-19 > 100 µM | EKVX > 100 µM | MCF7 5.19 µM | OVCAR-5 > 100 µM | SNB-75 4.7 µM | UACC-257 > 100 µM | SK-MEL-5 13.9 µM | TK-10 > 100 µM | UACC-62 13.8 µM | HCC 2998 29.2 µM | OVCAR-3 > 100 µM | U-251 > 100 µM | RXF 393 9.44 µM | KM12 7.36 µM | IGROV-1 56.9 µM

CCOC(=O)c1c(SCCN(CC)CC)n(-c2ccccc2)c(=S)n(-c2ccccc2)c1=O
inactive: MDA-N 2.7 µM | M14 1.74 µM | 786-0 1.77 µM | NCI-H522 1.56 µM | SW-620 2.74 µM | SNB-19 17.9 µM | EKVX 9.59 µM | MCF7 1.27 µM | OVCAR-5 30.3 µM | SNB-75 8.81 µM | UACC-257 2.28 µM | SK-MEL-5 2.61 µM | TK-10 1.81 µM | UACC-62 4.61 µM | HCC 2998 1.73 µM | OVCAR-3 1.84 µM | U-251 15.6 µM | RXF 393 1.72 µM | KM12 14.3 µM | IGROV-1 5.16 µM

O=CC(I)=C(c1ccccc1)c1ccccc1
inactive: MDA-N 17 µM | M14 18.5 µM | 786-0 14.8 µM | NCI-H522 16.2 µM | SW-620 8.47 µM | SNB-19 15.7 µM | EKVX 18.9 µM | MCF7 16.3 µM | OVCAR-5 21.8 µM | SNB-75 17.1 µM | UACC-257 20.4 µM | SK-MEL-5 17.3 µM | TK-10 19.5 µM | UACC-62 16.5 µM | HCC 2998 19.7 µM | OVCAR-3 13.2 µM | U-251 15.1 µM | RXF 393 15.1 µM | KM12 15 µM | IGROV-1 19.2 µM

Nc1ncnn2c(C3OC(CO)C(O)C3O)ccc12 (stereo not given)
active: MDA-N 0.163 µM | M14 0.0832 µM | 786-0 0.0766 µM | NCI-H522 0.237 µM | SW-620 0.123 µM | SNB-19 0.421 µM | EKVX 0.366 µM | MCF7 0.164 µM | OVCAR-5 0.338 µM | SNB-75 0.329 µM | UACC-257 0.0703 µM | SK-MEL-5 0.226 µM | TK-10 0.214 µM | UACC-62 0.136 µM | HCC 2998 0.426 µM | OVCAR-3 0.169 µM | U-251 0.125 µM | RXF 393 0.226 µM | KM12 0.107 µM | IGROV-1 0.21 µM

CCOC1C=CC(=O)C(CO)O1 (stereo not given)
inactive: MDA-N 15.3 µM | M14 15 µM | 786-0 4.26 µM | NCI-H522 1.67 µM | SW-620 9.23 µM | SNB-19 19.7 µM | EKVX 14.3 µM | MCF7 4.68 µM | OVCAR-5 18.1 µM | SNB-75 15.3 µM | UACC-257 5.86 µM | SK-MEL-5 21.1 µM | TK-10 8.43 µM | UACC-62 12.4 µM | HCC 2998 17.4 µM | OVCAR-3 6.73 µM | U-251 12.7 µM | RXF 393 7.55 µM | KM12 16.4 µM | IGROV-1 12.9 µM

Cc1c2cc[n+](C)cc2c(C)c2c1sc1ccccc12
inactive: MDA-N 2.77 µM | M14 4.73 µM | EKVX 3.01 µM | MCF7 1.3 µM | OVCAR-5 3.86 µM | UACC-257 1.94 µM | SK-MEL-5 1.39 µM | TK-10 13.4 µM | UACC-62 1.63 µM | HCC 2998 1.44 µM | OVCAR-3 1.29 µM | RXF 393 1.56 µM | IGROV-1 1.12 µM
active: 786-0 0.204 µM | NCI-H522 0.661 µM | SW-620 0.553 µM | SNB-19 0.205 µM | SNB-75 0.199 µM | U-251 0.114 µM | KM12 0.457 µM

Cc1cccc2c1NC(=S)[C@@H]1CCCN1C2=O
inactive: MDA-N > 100 µM | M14 > 100 µM | 786-0 > 100 µM | NCI-H522 > 100 µM | SW-620 > 100 µM | SNB-19 > 100 µM | EKVX > 100 µM | MCF7 > 100 µM | OVCAR-5 > 100 µM | SNB-75 54 µM | UACC-257 > 100 µM | SK-MEL-5 > 100 µM | TK-10 > 100 µM | UACC-62 > 100 µM | HCC 2998 > 100 µM | OVCAR-3 > 100 µM | U-251 > 100 µM | RXF 393 > 100 µM | KM12 > 100 µM | IGROV-1 > 100 µM

O=C(O)c1cccc(OCCOc2cccc(C(=O)O)c2[N+](=O)[O-])c1[N+](=O)[O-]
inactive: MDA-N > 100 µM | M14 > 100 µM | 786-0 > 100 µM | NCI-H522 > 100 µM | SW-620 > 100 µM | SNB-19 > 100 µM | EKVX > 100 µM | MCF7 > 100 µM | OVCAR-5 > 100 µM | SNB-75 > 100 µM | UACC-257 > 100 µM | SK-MEL-5 > 100 µM | TK-10 > 100 µM | UACC-62 > 100 µM | HCC 2998 > 100 µM | OVCAR-3 > 100 µM | U-251 > 100 µM | RXF 393 > 100 µM | KM12 > 100 µM | IGROV-1 > 100 µM

Oc1ccc(-c2nc(-c3cccnc3)c(-c3ccc(Cl)cc3)[nH]2)cc1
inactive: MDA-N 12.6 µM | M14 13.1 µM | 786-0 13.6 µM | NCI-H522 10.3 µM | SW-620 14.6 µM | SNB-19 16.5 µM | EKVX 13.2 µM | MCF7 11.3 µM | OVCAR-5 19.3 µM | SNB-75 7.46 µM | UACC-257 16.1 µM | SK-MEL-5 12.1 µM | TK-10 13.3 µM | UACC-62 12.9 µM | HCC 2998 18.8 µM | OVCAR-3 12.5 µM | U-251 14.3 µM | RXF 393 13.3 µM | KM12 11.9 µM | IGROV-1 10.9 µM

COc1cc(OC)c2c(=O)c(O)c(-c3ccc(OC)c(OC)c3)oc2c1
inactive: MDA-N 47.8 µM | M14 9.4 µM | 786-0 6.87 µM | NCI-H522 4.23 µM | SW-620 7.8 µM | SNB-19 10.3 µM | EKVX 7.14 µM | MCF7 4.02 µM | OVCAR-5 10.3 µM | SNB-75 7.59 µM | UACC-257 5.25 µM | SK-MEL-5 5.96 µM | TK-10 11.2 µM | UACC-62 3.43 µM | HCC 2998 4.26 µM | OVCAR-3 3.56 µM | U-251 4.94 µM | RXF 393 8.99 µM | KM12 7.29 µM | IGROV-1 4.86 µM
